Here are results for six molecules from ChEMBL document CHEMBL1159106, “Identification of potential and selective collagenase, gelatinase inhibitors from Crataegus pinnatifida” (Bioorg Med Chem Lett, 2010).

The target of assay [1] is 72 kDa type IV collagenase (Homo sapiens, UniProt P08253). The experiment in a line: Inhibition of human rheumatoid synovial fibroblasts gelatinase A after 30 mins by fluorescence plate reader.
Assay [2] addresses Matrix metalloproteinase-9 (Homo sapiens, UniProt P14780). The experiment in a line: Inhibition of human neutrophils gelatinase B after 30 mins by fluorescence plate reader.
The nature of assay [3]: Inhibition of collagenase type 4 after 30 mins by fluorescence plate reader.

Sequence of Matrix metalloproteinase-9 (P14780 whole entry): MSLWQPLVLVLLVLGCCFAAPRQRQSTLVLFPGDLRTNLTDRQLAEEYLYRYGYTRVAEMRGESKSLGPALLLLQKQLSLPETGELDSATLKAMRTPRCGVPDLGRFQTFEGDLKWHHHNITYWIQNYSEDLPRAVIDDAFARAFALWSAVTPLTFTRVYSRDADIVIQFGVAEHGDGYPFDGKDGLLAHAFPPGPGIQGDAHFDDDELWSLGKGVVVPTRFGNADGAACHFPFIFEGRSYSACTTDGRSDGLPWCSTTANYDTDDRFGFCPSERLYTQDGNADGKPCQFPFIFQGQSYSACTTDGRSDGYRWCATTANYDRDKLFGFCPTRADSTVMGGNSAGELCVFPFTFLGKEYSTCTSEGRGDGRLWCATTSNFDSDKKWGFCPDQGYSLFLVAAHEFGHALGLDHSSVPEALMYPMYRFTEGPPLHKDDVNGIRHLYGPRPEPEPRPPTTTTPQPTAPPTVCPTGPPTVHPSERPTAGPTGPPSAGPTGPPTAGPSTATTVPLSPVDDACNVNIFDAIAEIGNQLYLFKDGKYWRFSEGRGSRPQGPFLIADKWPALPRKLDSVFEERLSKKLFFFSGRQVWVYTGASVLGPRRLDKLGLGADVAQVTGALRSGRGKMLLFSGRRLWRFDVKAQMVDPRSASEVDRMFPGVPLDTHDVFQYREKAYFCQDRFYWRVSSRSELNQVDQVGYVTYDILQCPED
Sequence of 72 kDa type IV collagenase (P08253 whole entry): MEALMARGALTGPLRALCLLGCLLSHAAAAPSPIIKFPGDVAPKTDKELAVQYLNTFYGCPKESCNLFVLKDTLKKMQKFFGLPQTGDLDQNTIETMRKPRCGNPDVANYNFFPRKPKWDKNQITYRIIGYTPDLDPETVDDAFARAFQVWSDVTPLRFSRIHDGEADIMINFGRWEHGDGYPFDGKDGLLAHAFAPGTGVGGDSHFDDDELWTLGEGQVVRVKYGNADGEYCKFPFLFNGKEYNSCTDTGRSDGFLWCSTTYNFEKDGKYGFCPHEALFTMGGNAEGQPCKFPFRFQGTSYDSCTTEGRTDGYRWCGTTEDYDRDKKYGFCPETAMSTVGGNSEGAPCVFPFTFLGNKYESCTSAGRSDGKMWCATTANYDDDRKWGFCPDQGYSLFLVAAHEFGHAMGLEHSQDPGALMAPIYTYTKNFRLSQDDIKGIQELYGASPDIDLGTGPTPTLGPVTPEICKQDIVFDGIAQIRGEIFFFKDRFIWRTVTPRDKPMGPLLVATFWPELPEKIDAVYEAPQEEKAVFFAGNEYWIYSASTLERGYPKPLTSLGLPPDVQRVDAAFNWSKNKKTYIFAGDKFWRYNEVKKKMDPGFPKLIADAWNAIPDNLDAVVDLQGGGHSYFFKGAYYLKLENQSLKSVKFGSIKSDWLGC

By IC50 is commonly meant the concentration at which inhibition is half-maximal. The low end stands for greater potency in that assay, the high end for weaker potency in that assay. Regarding `[H]/N=C(\N/C(=N/[H])NCCCCCCNC(=N)NC(=N)Nc1ccc(Cl)cc1)Nc1ccc(Cl)cc1` [CHLORHEXIDINE], the IC50 in assay [1] and in assay [2] was 7.63 µM throughout.

Regarding `Oc1cc(O)c2c(c1)O[C@H](c1ccc(O)c(O)c1)[C@H](O)[C@H]2c1c(O)cc2c(c1O)C(c1c(O)cc(O)c3c1O[C@H](c1ccc(O)c(O)c1)[C@H](O)C3)[C@@H](O)[C@@H](c1ccc(O)c(O)c1)O2` (stereo not given in full), the IC50 in assay [3] came out at 0.34 µM; in assay [1], 0.4 µM; in assay [2], 2.3 µM.

In the case of `Oc1cc(O)c2c(c1)O[C@H](c1ccc(O)c(O)c1)[C@H](O)[C@H]2c1c(O)cc(O)c2c1O[C@H](c1ccc(O)c(O)c1)[C@H](O)[C@H]2c1c(O)cc2c(c1O)C[C@@H](O)[C@@H](c1ccc(O)c(O)c1)O2`, the IC50 stood at 0.98 µM in assay [3], 12.4 µM in assay [1] and 27.3 µM in assay [2].

In the case of `Oc1cc(O)c2c(c1)O[C@H](c1ccc(O)c(O)c1)[C@H](O)[C@H]2c1c(O)cc(O)c2c1O[C@H](c1ccc(O)c(O)c1)[C@H](O)[C@H]2c1c(O)cc(O)c2c1O[C@H](c1ccc(O)c(O)c1)[C@H](O)[C@H]2c1c(O)cc(O)c2c1O[C@H](c1ccc(O)c(O)c1)[C@H](O)[C@H]2c1c(O)cc(O)c2c1O[C@H](c1ccc(O)c(O)c1)[C@H](O)C2`, the 50% inhibitory concentration (IC50) in assay [3] amounted to 21.4 µM; in assay [1] it was 43.2 µM; in assay [2] it was 39.2 µM.

With `Oc1cc(O)c2c(c1)O[C@H](c1ccc(O)c(O)c1)[C@H](O)[C@H]2c1c(O)cc(O)c2c1O[C@H](c1ccc(O)c(O)c1)[C@H](O)[C@H]2c1c(O)cc(O)c2c1O[C@H](c1ccc(O)c(O)c1)[C@H](O)C2` [PROCYANIDIN C1], the IC50 in assay [3] came to 11.3 µM; in assay [1] it was 31.4 µM; in assay [2], 53.2 µM.

Take `CC(C)C[C@H](NP(=O)(O)O[C@@H]1O[C@@H](C)[C@H](O)[C@@H](O)[C@H]1O)C(=O)N[C@@H](Cc1c[nH]c2ccccc12)C(=O)O` [PHOSPHORAMIDON]: half-maximal inhibition in assay [3] (IC50) was put at 7.63 µM.
